Earlier results, collected in patent US20250188545A1, “METHODS FOR PREDICTING RESPONSIVENESS OF LYMPHOMA TO DRUG AND METHODS FOR TREATING LYMPHOMA” (Celgene Corporation, priority 2022, published 2025).

Test system: high-risk ABC DLBCL population
Settings: PHOENIX (ibrutinib), ROBUST (lenalidomide)

## Nc1cccc2c1CN(C1CCC(=O)NC1=O)C2=O (stereo not shown) [lenalidomide]
  activity combined with R-CHOP compared to R-CHOP alone: did not demonstrate greater activities
